The subject of assay [1] is 4T1 mouse mammary carcinoma cells. The experiment in a line: 4T1 allograft breast cancer model, anti-tumor and anti-metastatic efficacy. Format: in vivo. On the procedure: In vivo anti-metastatic and anti-tumor efficacy studies. 4T1 mouse mammary carcinoma cells is a highly aggressive cell line that forms tumors when grafted in Balb/c mice. […] All the in vivo experimental protocols were approved by the Institutional Animal Ethics Committee, CPCSEA, of the Indian Institute of Integrative Medicine, Jammu. The animals were maintained at 22° C. with a 12 h light-dark cycle and free access to feed and water inside the institutional animal house. Proper care was taken to maintain them in a healthy condition and to avoid any risk of possible pathogenic contaminations. For subcutaneous implantation of 4T1 cells, the Balb/c mice were distributed into four groups bearing five mice in each group. For tumor induction, 1.5 million 4T1 cells were suspended in serum-free media and injected into the mammary pad of the animal and kept in the animal house for tumor induction. After the tumor reached an adequate size (30-150 mm^3) the mice in the allotted groups were treated with vehicle (normal saline), 15 and 30 mg/kg 2a & 30 mg/kg DIM (positive control) for every alternate day and was continued for two weeks. After the treatment, the mice were sacrificed by cervical dislocation, and the tumor was dissected out from the mammary pad, the tumor volume was measured, and images were taken. Subsequently, to examine the anti-metastatic property of the compound 2a, the chest cavity was dissected to remove the lungs, and after washing with PBS, the metastatic nodules in the lung due to 4T1 migration were checked and subsequently counted.
The anti-proliferative as well as anti-metastatic role of compound 2a was studied in 4T1 allograft breast cancer model. Briefly, 1.5×10^6 4T1 mammary breast cancer cells were injected in mouse mammary pad and kept undisturbed until the formation of tumor. Subsequently, the mice were treated with 15 and 30 mg/kg of compound 2a along with a positive control 30 mg/kg di-indoyl methane (DIM) molecule and normal saline as vehicle. The drugs were administered intraperitonially for each alternate day for 2 weeks. The animals were sacrificed and tumours were harvested from the mammary pad and tumor weight was measured (FIG. 7a & b). Moreover, the lungs were also removed and photographed to study the presence of metastatic patches. […] Furthermore, the tumors were subjected to tissue lysis and immunoblot analysis was performed to study the expression of Snail-1. Twist-1, STAT-3, Vimentin and E-cadherin.

A further assay deals with MDA-MB-231 cells. The experiment in a line: MTT cell viability assay, MDA-MB-231. Type of assay: cell-based. To be noted: Homo sapiens, aggressive breast cancer cell line of mesenchymal origin. On the procedure: (§1) Cell viability assay: The cell viability was determined by the standard MTT assay method. Briefly, Panc-1, HCT-116, A549, PC3, MIAPaca-2, HT-29, MDA-MB-231, MCF7 cells, and fR2cells were seeded in 96 well tissue culture plates (Nunc) at a density of 4×10^3 cells per well and treated with varying concentrations of the test compounds in triplicates. DMSO was taken as a vehicle, and its final concentration was maintained at 0.2% in the culture medium. Doxorubicin was employed as a positive control. After 44 h of incubation, MTT dye solution was added into the medium, and cells were incubated for another 4 h at 37° C. in 5% CO2. The amount of colored formazan derivatives formed was measured by taking optical density (OD) using a microplate reader (TECAN, Infinite M200 Pro) at 570 nm, and the percentage of cell viability was calculated. The IC50 values were calculated using GraphPad Prism software (Version 5.0).
Now to study its anti-migratory and anti-metastatic role in another highly metastatic cancer cells of breast origin (MDA-MB 231) the IC50 value was determined by performing MTT assay (FIG. 6a).
(Tetrazolium assays rely on reduction of a dye to a coloured formazan, in cell work by metabolically active cells.)

In assay [2] the test system is human colorectal adenocarcinoma cell line (HT-29). In words: MTT cell viability assay, HT-29. To be noted: Homo sapiens, HT-29, 48 h, read-out: Cytotoxicity (IC50) HT-29, MTT, 48 h; human colorectal adenocarcinoma cell line. Type of assay: cell-based. On the procedure: as §1
Assay [3] deals with Snail-1, Twist-1, Vimentin and E-cadherin in MIAPaCa-2 cells. The experiment in a line: Western blot of EMT markers. To be noted: 36 h, immunoblot. Format: cell-based, human. On the procedure: Western Blot analysis. Briefly, MIAPaCa-2 cells were seeded in a 60 mm petri dish and maintained up to 70% confluency; afterward, the cells were treated with compound 2a (0.5, 1.5, 3 & 5 μM) for 36 h. After treatment, the cells were harvested washed thrice with ice-cold PBS and were subjected to protein lysis with lysis buffer (HEPES 1 mM/L, KCl 60 mM/L, NP-40 0.3%, EDTA 1 mM/L, DTT 1 mM/L, sodium orthovanadate 1 mM/L, PMSF 0.1 mM/L and cocktail protease inhibitor). The lysis product was centrifuged at 12000 rpm for 15 min at 4° C. to remove the cellular debris, and the supernatants were collected. Total protein was estimated with the help of the Bradford method. An equal amount of protein was subjected to SDS-PAGE, and consequently, after the protein was separated on SDS-PAGE based on their molecular weight, they were transferred onto the PVDF membrane. The membrane was blocked with 5% BSA and incubated in primary antibody prepared in 5% BSA (dilution ranging from 1:1000-1:2000) for 2-3 h. […] After washing with TBST, the protein expression was quantified by adding a chemiluminescent substrate on the membrane, and the signal obtained was captured in Biomax light x-ray films.
Now this particular derivative was further analysed for its ability to inhibit the molecular signatures of EMT. […]
In general terms: A western blot detects proteins with antibodies after separation by electrophoresis.

The next assay concerns MIAPaCa-2 cells. In words: Wound healing assay. Type of assay: cell-based, human. The note with it: MIAPaCa-2, 1, 2 and 3 μM, 36 h, compared to 2, 2b, 4, 4a, 4b. As to the method: Wound healing assay. MIAPaCa-2 cells (1×10^6) were seeded onto 6 well plates and grown up to more than 90% confluency, and wounds were created with sterile pipette tip (20-200 μL), and the media was replaced with serum-free media. Subsequently, the cells were treated with vehicle (DMSO), compounds 3 μM of 2 and 4, and their derivatives, i.e., 1, 2 and 3 μM of 2a, 2b, 4a, 4b for 36 h. Upon termination, the cells were washed with PBS, and images were captured under a microscope at 20× magnification (FIG. 4).

The mark [4] stands for this setting: tumor lysate immunoblot, 30 mg/kg.

One may read the IC50 as the point on the concentration scale where inhibition reaches its midpoint.

Consider `CCCCCc1cc(O[C@@H]2OC(CO)[C@@H](O)C(O)C2O)c2c(c1)OC(C)(C)[C@@H]1CCC(C)=C[C@@H]21` (stereo partly drawn) [Compound 2a, Δ^9-tetrahydrocannabinol-1-O-β-D-glucopyranoside], for which the “metastatic white patches on lungs” value in assay [1] (Balb/c mice, 4T1, 15 & 30 mg/kg intraperitoneal, alternate day for 2 weeks) is “white patches were not observed”. Also, the tumor weight result in assay [1] (Balb/c mice, 4T1, 15 and 30 mg/kg intraperitoneal, alternate day for 2 weeks, vs normal saline) is “drastically reduced”. Besides, in assay [1] (setting [4]), the “tumor E-cadherin level” value is on record as “increased considerably” and the “tumor expression of Twist-1” value is reported as “curbed”. Further, in assay [1] (tumor lysate immunoblot, 15 and 30 mg/kg), the “tumor expression of Snail-1, STAT-3 and Vimentin” value is recorded as “decreases significantly”. Moreover, half-maximal inhibition in the assay on MDA-MB-231 cells (IC50) required 1.42 µM. Moreover, in assay [2], the IC50 worked out at 3.16 µM. Moreover, in assay [3] (MIAPaCa-2, 0.5, 1.5, 3 and 5 μM), the “expression of Snail-1, Twist-1 and Vimentin” value is “significant down modulation”. Further, the “expression of E-cadherin” value in assay [3] (MIAPaCa-2, from 1.5 to 5 μM) is given as “upregulated”. Besides, the “anti-migratory properties in wound healing assay” value in the assay with MIAPaCa-2 cells is reported as “most prominent anti-migratory properties”.

For the origin of these results see patent US20240382509A1, “Cannabinoids C- and O-glycosides possessing anti-proliferative and anti-metastatic properties and process for preparation thereof” (Council of Scientific and Industrial Research, priority 2021, published 2024).
